# How the values were obtained:
# CYP3A4 = CYP3A4 (Homo sapiens, UniProt P08684); conditions: known route of elimination; cited from earlier work
# MCP-1, IFNγ and IL-1β = test: Inflammatory markers in CRPS patients following ketamine treatment; type: in vivo, human; conditions: p<0.05
# Excerpt: Additional analysis comparing miRNA profiles from responders, non-responders and 20 control subjects enabled identification of additional miRNAs.
# β-endorphin = β-endorphin levels in plasma of CRPS patients before and after ketamine therapy; type: in vivo, human; conditions: after vs before ketamine therapy
# Method: FIG. 8 is a graph showing no significant difference in the basal (pre-treatment) plasma levels of β-endorphin between patients and healthy controls. […] Shown are β-endorphin levels in the plasma from CRPS patients (responders and non-responders to ketamine therapy) before treatment and healthy controls and in CRPS patients before and after ketamine therapy. Responders; n=11, non-responders; n=6 and control; n=5. Results represent mean±SEM. The statistical significance was calculated using one-way ANOVA*: p<0.05 relative to non-responders after treatment.
# Analgesic pathway targets were selected for validation. Cross talk between analgesic and endocrinal systems is known (FIG. 6). Pro-opiomelanocortin (POMC) is a polypetide precursor of many peptide hormones in the hypothalamopitiutary axis, including Adrenocorticotrophic hormone (ACTH), Melanocyte stimulating hormone (MSH), and Beta-endorphin. Prohormone convertase cleaves POMC yielding important hormonal peptides ACTH, MSH, […] and β-endorphin. β-endorphin is an important member of the endogenous opioid system. Its release is important in modulation of mood, pain, inflammatory responses. Several studies have linked the expression of POMC and its daughter peptide β-endorphin to placebo effect. Non-Responders to ketamine therapy had increased expression of POMC mRNA in blood relative to the responders and healthy controls (FIG. 7). […]
# [1] = test system: miRNAs in blood of CRPS patients; conditions: blood of responders, after vs before ketamine treatment
# Method: The experiments described herein were conducted in order to determine the utility of miRNAs as biomarkers for CRPS in both the effectiveness of a treatment and the severity and progression of individual cases. As presented herein, the changes in levels of 758 miRNAs were examined in blood of 19 CRPS patients before and after ketamine treatment, using Taqman low-density array cards.
# Ketamine Treatment Ketamine treatment was given to the subjects by sub-anesthetic continuous intravenous administration. Infusion started at a rate of 10 mg/hr and increased in steps of 10 mg/hr at every 2 hours to a maximum of 40 mg/hr (see FIG. 4). Blood samples were collected from CRPS patients before and after ketamine treatment. miRNA Analysis
# Total RNA was isolated from blood samples using mirVana kit (Applied Biosystems) and cDNA synthesis was performed. Levels of 758 miRNAs were analyzed by using a Taqman low-density array (TLDA) card.
# A positive fold change indicates a higher expression of the miRNA in responders, while a negative fold change indicates a lower expression of the miRNA in responders.
# RAW 264.7 cells = test: Exosomal RNA sequencing (NGS) of naive and LPS-stimulated RAW 264.7 cells; type: cell-based, mouse; conditions: exosomal transcript level after LPS stimulation of RAW 264.7 cells compared with exosomes from naive cells
# Method: RAW 264.7 cells (ATCC) and RAW-Blue cells (Invivogen) were maintained in complete culture media (1×DMEM, 10% heat inactivated FBS). For exosome collection, RAW 264.7 cells (1×10^7) were plated in 150 mm dishes with complete culture media. At 24 hr, media was replaced with exosome-depleted media (1×DMEM, 10% heat-inactivated FBS depleted of exosomes by ultracentrifugation) with or without 1 μg/ml LPS (Sigma)) and incubated overnight. Media was collected in 50 ml tubes at 24 hr for exosome purification. Human THP1 macrophages were used in some experiments.
# Exosome purification from cell culture media was performed as described (McDonald et al., 2013, J Visualized Exp 2013(76):e50294). […]
# The SOLiD whole transcriptome analysis kit protocol with the fragmentation step omitted was used to generate a cDNA library for each sample. […] RNA concentration was measured using Nanodrop 1000 (NanoDrop Technologies, Wilmington, Del.). Total RNA from 3 independent exosome purifications was pooled to obtain 4 μg exosomal RNA per library (due to a limited amount of RNA in individual preparations), analyzed for integrity using the Agilent RNA 6000 Pico Kit (RNA integrity number between 1.6 and 2.1), and gel purified. […]
# [2] = test system: exosomes from human serum; test: miRNA profiling of human serum-derived exosomes, patients with CRPS vs control subjects (TLDA cards)
# Method: Exosome purification from cell culture media was performed as described (McDonald et al., 2013, J Visualized Exp 2013(76):e50294). Centrifugation was used to remove cell debris (500×g for 10 min); the supernatant was transferred and centrifuged (16,500×g for 20 min) Cell-free supernatants were filtered (0.22 μm; VWR, Radnor, Pa.) and exosomes were pelleted by ultracentrifugation (120,000×g for 70 min) The exosomal pellet was resuspended in buffer specific to downstream experiments and vortexed 2×15 seconds. For RNA purification, RNase inhibitors were added after the first centrifugation step at 1 U/ml (RNAsin Plus; Promega, Madison, Wis.) and at all subsequent steps at 1 U/μl. […]
# TLDA microfluidic cards (Life Technologies) were used for miRNA profiling as previously described. […] For miRNAs profiled from exosomes collected from RAW 264.7 cells, significance was determined by applying a P value cutoff of 0.05 to the results of a paired-samples t test. For human exosomal miRNAs, significance was determined by applying the Benjamini-Hochberg false discovery rate correction to the results of a 2-tailed t test.
# To determine whether exosomal miRNAs reflect the miRNA signature in whole blood of patients with CRPS, miRNAs in exosomes purified from the serum of 6 patients with CRPS and 6 healthy controls we analyzed (FIG. 38).
# [3] = negative = lower expression following treatment
# Chain of CYP3A4 (P08684 whole entry): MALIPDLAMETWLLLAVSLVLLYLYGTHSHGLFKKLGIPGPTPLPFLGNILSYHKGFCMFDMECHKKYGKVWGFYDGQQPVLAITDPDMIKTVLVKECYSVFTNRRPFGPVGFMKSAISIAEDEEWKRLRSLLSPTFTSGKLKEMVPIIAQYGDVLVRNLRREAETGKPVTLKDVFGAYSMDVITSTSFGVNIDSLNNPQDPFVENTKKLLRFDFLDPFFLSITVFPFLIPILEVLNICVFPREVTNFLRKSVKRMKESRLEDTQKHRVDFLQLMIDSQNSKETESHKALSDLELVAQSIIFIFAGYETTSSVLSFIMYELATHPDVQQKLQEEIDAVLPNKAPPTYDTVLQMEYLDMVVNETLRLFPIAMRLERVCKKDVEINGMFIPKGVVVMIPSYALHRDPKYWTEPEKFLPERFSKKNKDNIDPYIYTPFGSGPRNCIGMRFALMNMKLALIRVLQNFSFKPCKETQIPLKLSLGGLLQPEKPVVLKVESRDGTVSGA
molecule,measurement,setting,value
CNC1(c2ccccc2Cl)CCCCC1=O (stereo not drawn) [ketamine],Metabolism,CYP3A4,demethylated mostly by CYP3A4 followed by conjugation with glucuronic acid
same,IFNγ level,"MCP-1, IFNγ and IL-1β",decreased significantly
same,IL-1β level,"MCP-1, IFNγ and IL-1β",decreased significantly
same,MCP-1 level,"MCP-1, IFNγ and IL-1β",decreased significantly
same,β-endorphin plasma level,β-endorphin; non-responders,but not the non-responders
same,β-endorphin plasma level,β-endorphin; responders,induced an increase in β-endorphin
same,Fold change RNU44.A,[1]; [3],−1.80
same,Fold change hsa-miR-337-3p,[1]; [3],−18.20
same,Fold change hsa-miR-597,[1]; [3],−16.23
same,Fold change hsa-miR-605,[1]; [3],−36.08
same,Fold change hsa-miR-650,[1]; positive = higher expression following treatment,8.01
Gdf11,PS/cpntrol ratio,RAW 264.7 cells,4.82
Pgcp,PS/cpntrol ratio,RAW 264.7 cells,2.94
RNU48 (GAUGACCCCAGGUAACUCUGAGUGUGUCGCUGAUGCCAUCACCGCAGCGCUCUGACC; chemistry not fully specified; listed as Homo sapiens),ddct,[2],2.147
same,fold-change,[2],−4.429

# Reference: patent publication US20160076098A1, “METHODS OF DIAGNOSING AND TREATING CHRONIC PAIN” (priority 2013, published 2016)
